The source of these data is patent US4931435A, “Agent with an antidepressant activity” (Boehringer Ingelheim KG, priority 1987, dated 1990).

In data set [1] the test system is ptosis induced by tetrabenazine. The experiment in a line: Inhibition of ptosis induced by tetrabenazine in the mouse. The format is in vivo. Conditions: Control without tetrabenazine = 100%.
In a further data set the test system is isolated chicks. Kind of data set: chick call test: distress call activation in isolated one day old chicks (antidepressant activity). The conditions noted are these: Placebo = 100%. The format is in vivo. An excerpt: The call frequency of isolated one day old chicks, which decreases in the course of the test, is used as an experimental behavioral model of manifestations of resignation in depression, The method has been validated by tests on numerous neurotropically active substances; it is distinguished by its highly reproducible selectivity for antidepressants which are capable of reactivating the decreased call rate as a function of dosage. [distress call activation in isolated chicks; A new behavioral model for antidepressants, E. Lehr, Psychopharmacol. 89. […] Neurol. Psychiat.

The next data set has as its system mice. The conditions noted are these: mouse, in vivo. The protocol:
The test substances were dissolved in 0.9% NaCl solution.
**The animals in Group 2 were treated first with
1benzyl-4-aminomethyl-pyrrolidin-2-one FU and immediately afterwards
(about 10 to 15 seconds later) with imipramin.

The test system of data set [2] is Albino mice of the Chbb: NMRI strain. Conditions: group 1 (m and f), i.v., mouse, dosage 100. An excerpt:
Albino mice of the Chbb: NMRI strain
A 2% solution of 1-benzyl-4-aminomethyl-pyrrolidin-2-one fumarate and a 0.25% imipramin solution (pH=6.2) were used.

`CN(C)CCCN1c2ccccc2CCc2ccccc21` [Compound A, 10,11-dihydro-N,N-dimethyl-5H-dibenz[b,f]-azepin-5-propanamine, reference compound]: in data set [1] (3 mg/kg p.o.), the “Inhibition of ptosis induced by tetrabenazine” value is on record as 12%. For the same compound, the “Increase in call rate in the second hour” value in the data set on isolated chicks (10 mg/kg i.p.) is listed as 131%.
For the compound `NCC1CC(=O)N(Cc2ccccc2)C1` (stereo not drawn) [Compound B, 1-benzyl-4-aminomethyl-pyrrolidin-2-one], the “Inhibition of ptosis induced by tetrabenazine” value in data set [1] (3.5 mg/kg p.o.) turned out to be 48%. Also, the “Increase in call rate in the second hour” value with isolated chicks (5 mg/kg i.p.) came to 284%. Moreover, the “effect of pretreatment on the toxic effect of imipramin” value in the data set on mice is “toxic effect of imipramin is reduced”. Moreover, the Lethality dead/treated animals in data set [2] is listed as 0/10.
